Consider 4 compounds from patent publication US5428013A, “Differential diagnosis and treatment of the states of growth hormone insufficiency (or deficiency) with an alpha-2-adrenergic agonist and a growth hormone releasing peptide” (priority 1992, dated 1995).

Assay [1] deals with GH secretion. Nature of the assay: Provocative tests for GH secretion in short children (clonidine, propranolol plus exercise, insulinic hypoglycemia, placebo plus GHRH, clonidine plus GHRH). The class given is in vivo. The text has this:
Twenty-four children (17 boys and 7 girls) with stature below the third percentile (P3), participated in the study with informed consent (parent and child). Ages of the children ranged from 7 to 13.9 years. In all but seven of the children, weight was more than or equal to P3. […] Two children had received prophylactic cranial irradiation due to brain tumors, five and three years before the study. […] All children had been previously studied for their GH insufficiency. Studies included growth velocity, bone age, classical provocative tests for GH secretion (i.e. clonidine, insulin hypoglycemia and propranolol plus exercise), plasma somatomedin C (Sm C) (Insulin Growth Factor-I (IGF-I)) analysis, and analysis of the spontaneous pattern of nocturnal GH secretion.
Studies commenced at 09.00 h after an overnight fast and bed rest and thirty minutes after the insertion of a nonthrombogenic catheter for blood withdrawal in a forearm vein. The study consisted of administering clonidine (Catapresan, Boehringer Ingelheim, Spain) orally at 150 micrograms/m^2 at time 0, followed by administering GHRH (GRF 1-29, Serono, Spain) as an intravenous bolus at 1 microgram/kg at time 60 minutes. An additional control for short children consisted of administering a placebo at time 0, followed by administering GHRH at time 60 minutes. Blood samples for GH analysis (RIA, BioMerieux, France) were taken at 0 and 60 minutes and at 15 minute intervals for one hour following GHRH administration. The mean intra-assay coefficient of variation was 5.7, 3.2 and 4.3% at mean GH concentrations of 1.5, 10 and 22 micrograms/L respectively. To avoid interassay variations, all samples from a subject were run in the same assay.
To confirm the uniqueness of such combined clonidine plus GHRH test in the differentiation of GH-deficient states, the theoretical GH responses to this test in short children were calculated on the basis of the equation obtained from the multiple regression analysis relating chronological and bone age with the amplitude of GH peaks in normal children. […] Responses between the -20 to +20% range were considered to be normals, as they fitted between the standard deviation from the mean in the group of normal children.

The subject of assay [2] is GH secretion. Conditions: cited from earlier work.
A short description of assay [3]: Growth velocity of short children treated with GH. Conditions: three children treated with GH for 9 months; increased from 3 cm/yr. The class given is in vivo. The text has this: Twenty-four children (17 boys and 7 girls) with stature below the third percentile (P3), participated in the study with informed consent (parent and child). Ages of the children ranged from 7 to 13.9 years. In all but seven of the children, weight was more than or equal to P3. […] Two children had received prophylactic cranial irradiation due to brain tumors, five and three years before the study. Three children had been treated with GH for 9 months; their growth velocity increased during this therapy from 3 to 8 cm/yr. All children had been previously studied for their GH insufficiency. Studies included growth velocity, bone age, classical provocative tests for GH secretion (i.e. clonidine, insulin hypoglycemia and propranolol plus exercise), plasma somatomedin C (Sm C) (Insulin Growth Factor-I (IGF-I)) analysis, and analysis of the spontaneous pattern of nocturnal GH secretion. […] Mean (±SEM) plasma Sm C was 488±376 U/L. Mean (±SEM) growth velocity was 3.7±0.9 cm/yr.

Setting [4] is: patient group 1, short children.
Where [5] appears, read: patient group 2, short children.
Setting [6] is: patient group 3, short children.
Where [7] appears, read: patient group 4, short children.
[8] abbreviates: patient group 5, short children.

Where no end group is shown, it is not given here.

For `Clc1cccc(Cl)c1NC1=NCCN1` [clonidine, 2-(2,6-dichloroanilino)-2-imidazoline], in assay [1] (24 short children, earlier work-up), the “Share of children appearing GH-deficient on the basis of a low GH response (<10 μg/L) to the provocative test” value came out at 50%. Moreover, the “Number of positive (+, >10 μg/L) GH responses” value in assay [1] (setting [4]) worked out at 0; in assay [1] (setting [5]) it was 4; in assay [1] (setting [6]), 2; in assay [1] (setting [7]) it was 3; in assay [1] (setting [8]) it was 1. In addition, in assay [1] (setting [6]), the “Number of negative (-, <10 μg/L) GH responses” value was 2. Besides, the “Effect of pretreatment with clonidine on the GH response to GHRH” value in assay [1] (patient group 5, malnourished children) is reported as “did not significantly enhance the GH response to GHRH”. The “Effect on GHRH-induced GH secretion” value in assay [2] (normal subjects, short, normal children and adults (literature)) is on record as “enhances the GH response to GHRH”.

As to `CN(C)C(=O)Oc1ccc[n+](C)c1` [pyridostigmine], the “Usefulness as treatment of short stature” value in assay [2] (literature (Ghigo 1989)) was “does not represent a useful treatment of short stature”.

Take “GH: exogenous growth hormone given to three children for 9 months”: the “Growth velocity during GH therapy” value in assay [3] came to 8 cm/yr.

Turning to “GHRH: growth hormone-releasing hormone, used as GRF 1-29 (Serono, Spain), intravenous bolus (YADAIFTNSYRKVLGQLSARKLLQDIMSR; ends and bridges not checked; UniProt P01286 32-60, looked up, fragment)”, in assay [1] (24 short children, pretreatment with placebo), the “Number of patients with deficient GHRH-induced GH response (GH peak <10 μg/L)” value was 9 patients. The “Number of negative (-, <10 μg/L) GH responses” value stood at 4 in assay [1] (setting [4]) and 2 in assay [1] (setting [5]). Besides, the “Number of positive (+, >10 μg/L) GH responses” value in assay [1] (setting [4]) is recorded as 2; in assay [1] (setting [5]), 3; in assay [1] (setting [6]), 3; in assay [1] (setting [7]), 3; in assay [1] (setting [8]), 3. For the same compound, the “Mean GH peak response to GHRH” value in assay [1] (short children, placebo at time 0, GHRH i.v. bolus at 60 minutes) turned out to be 19.5 ± 15.7 µg/L.
